The test system of this assay is HBV. As to the kind of experiment: HBV-DNA antiviral assay using HepG2.117 cells. It is filed as cell-based, genotype D HBV. The conditions noted are these: Hepatitis B virus, 72 h, intracellular HBV DNA by qPCR, 3 days incubation. In a few lines: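 HepG2.117 cells (genotype D HBV, Tet-off) seeded without doxycycline and treated for 3 days at 9 concentrations (4-fold dilutions) in 2% DMSO. Intracellular HBV DNA measured by qPCR against a standard curve, with viability from ATPlite run in parallel. EC50, EC90 and CC50 fitted relative to DMSO controls.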
On the technique in general: Quantitative PCR measures a nucleic acid by following its amplification.

These results are taken from patent US11136321B2, “Tricyclic compounds” (ALIGOS THERAPEUTICS, INC., priority 2019, dated 2021).

The term EC50 denotes the concentration needed to bring the measured effect to its halfway point. Higher therefore signals lower potency in that assay.

In turn, `CNC(=O)c1ccc(-n2c(=O)c3c(n4ncc(NCc5ccc(OC(F)F)cc5)c24)CN(C(=O)c2ccc(Br)c(Cl)c2)CC3)cc1` [Compound 46, 4-[12-(4-bromo-3-chloro-benzoyl)-5-[[4-(difluoromethoxy)phenyl]methylamino]-8-oxo-2,3,7,12-tetrazatricyclo [7.4.0.0 2,6]trideca-1(9),3,5-trien-7-yl]-N-methyl-benzamide] returned an EC50 not above 100 nM.

Take `CNC(=O)c1ccc(-n2c(=O)c3c(n4ncc(Nc5ccc(F)cc5)c24)CN(C(=O)c2ccc(Br)c(Cl)c2)CC3)cc1` [Compound 54, 4-[12-(4-bromo-3-chloro-benzoyl)-5-(4-fluoroanilino)-8-oxo-2,3,7,12-tetrazatricyclo [7.4.0.0 2,6]trideca-1(9),3,5-trien-7-yl]-N-methyl-benzamide]: the EC50 is not above 100 nM.
